In publication PMC8778818, “Synthesis, Structural Characterization and Anticancer Activity of New 5-Trifluoromethyl-2-thioxo-thiazolo[4,5-d]pyrimidine Derivatives” (Pharmaceuticals, 2022):

Key:
T-47D = experiment: NCI-60 screen, Breast Cancer T-47D; format: cell-based; details: for Growth of Cells (%): 10^−5 M one dose
DU145 = experiment: MTT cell viability assay, DU145; format: cell-based, human; details: Homo sapiens, DU-145; DU145, MTT, 72 h, mean ± SD
Method: (§1) Twelve compounds (2a-e, 3a-d and 4a-c) at a concentration range of 50–5000 μM were tested for their antiproliferative potential against four human cancer cell lines (A375—melanotic melanoma, C32—amelanotic melanoma, DU145—prostate cancer androgen-independent, MCF-7/WT—breast adenocarcinoma) and two normal cell lines: Chinese Hamster Ovary (CHO-K1) and immortalized human keratinocytes from histologically normal skin (HaCaT).
(§2) To determine the antiproliferative activity of newly synthesized compounds, the following cell lines were used: human melanotic melanoma cell line (A375), human amelanotic melanoma cell line (C32), human breast adenocarcinoma cell line (MCF-7/WT), human prostate cancer androgen-independent (DU145) and two normal cell lines: hamster ovarian (CHO-K1) and immortalized human keratinocytes from histologically normal skin (HaCaT). The cells were obtained from the cell line bank of the Department of Molecular and Cellular Biology, Wroclaw Medical University. A375, C32, MCF-7/WT, DU145 and HaCaT cells were grown in a monolayer cultured in Dulbecco’s Modified Eagle’s Medium (DMEM, Sigma-Aldrich, Poznań, Poland), supplemented with 10% of fetal bovine serum (FBS, Gibco, Paisley, UK) and 1% of antibiotics (penicillin/streptomycin, Sigma-Aldrich) and CHO-K1 were grown in HAM’s F-12 medium (Sigma-Aldrich), supplemented with 10% fetal bovine serum (FBS, Gibco) and 1% of antibiotics (penicillin/streptomycin, Sigma-Aldrich). Cell lines were cultured in the polystyrene flasks 25 or 75 cm^2 (Thermo Fisher Scientific, Waltham, MA, USA), which were stored in 37 °C and 5% CO2 in a humidified 95% atmosphere (SteriCult, Thermo Scientific, Alab). The cell medium was exchanged twice a week. The exponentially growing cells were used throughout the experiments. The cells were rinsed with phosphate-buffered saline (PBS, Sigma-Aldrich) and trypsinized by Trypsin-EDTA 0.25% solution (Sigma-Aldrich).
(§3) The influence of the compounds was performed in a monolayer culture on cancer and normal cells. Compounds were initially dissolved in DMSO; further dilutions of the compound were performed in Dulbecco’s Modified Eagle’s Medium supplemented with 10% FBS. Compounds were tested in a 50–5000 µM concentration range. In the in vitro experiments, the concentrations of DMSO in the final solution of the compounds were used 0.05%; 0.1%; 0.5%; 1%, respectively.
(§4) Cell viability was determined using the MTT colorimetric assay. All cell lines were seeded into 96-well plates to a density of 3 × 10^4 cells/well. After 24 h, the culture supernatants were removed and appropriate dilutions of compounds in the culture medium (200 µL/well) were added to the cells’ monolayer cultures and incubated for an additional 72 h. After 72 h of exposition to the compounds and the removal of the culture medium, cell viability was determined by reducing the yellow dye 3-(4,5-dimethyl-2-thiazol)-2,5-diphenyl-2H-tetrazolium bromide (MTT assay, Sigma Saint Louis, MO, USA; In Vitro Toxicology Assay) to a blue formazan product. The absorbance of the resulting solutions in three duplicate experiments was measured at the wavelength of 560 nm in a microplate reader (EnSpire, Perkin Elmer, Kraków, Poland). MTT assay is a colorimetric method that estimates the rate of metabolism in viable cells. Absorbance is directly proportional to the number of viable cells. All the experiments were performed three times and the mean absorbance values were calculated. The methodology for the evaluation of the growth of human cancer and normal cells was described previously. The cell viability in each group was expressed as a percentage of control (untreated) cells.

SK-MEL-28 = experiment: NCI-60 screen, Melanoma SK-MEL-28; format: cell-based; details: for Growth of Cells (%): SK-MEL-28, 10^−5 M one dose
M14 = details: for Growth of Cells (%): M14, 10^−5 M one dose
UACC-62 = experiment: NCI-60 screen, Melanoma UACC-62; format: cell-based, human; details: UACC-62, 10^−5 M one dose
CHO-K1 = experiment: MTT cell viability assay, CHO-K1; format: cell-based, Chinese Hamster; details: Cricetulus griseus; CHO-K1 normal cells, MTT, 72 h, mean ± SD
Method: as §1, §2, §3, §4

A375 = experiment: MTT cell viability assay, A375; format: cell-based, human; details: Homo sapiens; for IC50: A-375, 72 h, A375, MTT, mean ± SD
Method: as §1, §2, §3, §4

Row | SMILES | Growth of Cells (%) (T-47D; T-47D) | IC50 (DU145) [µM] | Growth of Cells (%) (SK-MEL-28) | Growth of Cells (%) (M14) | Growth of Cells (%) (UACC-62) | IC50 (CHO-K1) [µM] | IC50 (A375) [µM] | GI50 (T-47D; Homo sapiens, T47D, read-out: log GI50 (converted)) [µM] | CC50 (T-47D; Homo sapiens, T47D, T-47D, five doses 10^−4–10^−8 M, read-out: log LC50 (the source's name) (converted)) [µM] | log TGI (T-47D; T-47D, five doses 10^−4–10^−8 M) [log M] | GI50 (SK-MEL-28; Homo sapiens, SK-MEL-28, five doses 10^−4–10^−8 M) [µM] | CC50 (SK-MEL-28; Homo sapiens, SK-MEL-28, five doses 10^−4–10^−8 M, read-out: log LC50 (the source's name) (converted)) [µM] | log TGI (SK-MEL-28; SK-MEL-28, five doses 10^−4–10^−8 M) [log M] | log TGI (M14; M14, five doses 10^−4–10^−8 M) [log M] | viability at 50 µM (A375; A-375, A375 melanotic melanoma, 50 µM, 72 h) [%]
1 | O=c1[nH]c(C(F)(F)F)nc2c1sc(=S)n2-c1ccccc1 [Compound 2b, 3-phenyl-2-thioxo-5-(trifluoromethyl)-2,3-dihydro[1, 3]thiazolo[4,5-d]pyrimidin-7(6H)-one] | 108.41 | 356 ± 14.7 | 102.86 | 112.91 | 109.52 | 319 ± 13.1 | 367 ± 15.1 | – | – | – | – | – | – | – | –
2 | FC(F)(F)c1nc(Cl)c2sc(=S)n(-c3ccccc3)c2n1 [Compound 3b, 7-chloro-3-phenyl-5-(trifluoromethyl)[1, 3]thiazolo[4,5-d]pyrimidine-2(3H)-thione] | −35.57 | 55.1 ± 1.1 | −62.53 | 26.96 | 79.14 | 75.5 ± 1.6 | 25.4 ± 0.5 | 1.86 | 66.1 | −5.32 | 1.95 | 6.46 | −5.45 | −5.39 | 20
3 | CCNc1nc(C(F)(F)F)nc2c1sc(=S)n2-c1ccccc1 [Compound 4b, 7-(ethylamino)-3-phenyl-5-(trifluoromethyl)[1, 3]thiazolo[4,5-d]pyrimidine-2(3H)-thione] | 73.92 | 323 ± 13.8 | 112.46 | 107.61 | 93.86 | 237 ± 10.1 | 524 ± 22.3 | – | – | – | – | – | – | – | –
4 | Fc1ccc(CNc2nc(C(F)(F)F)nc3c2sc(=S)n3-c2ccccc2)cc1 [Compound 4c] | 85.37 | 237 ± 10.3 | 110.02 | 112.06 | 105.93 | 549 ± 24 | 507 ± 22.1 | – | – | – | – | – | – | – | –
